Results as given in patent publication US20130045483A1, “YEAST CELLS EXPRESSING AMYLOID BETA AND USES THEREFOR” (priority 2011, published 2013).

What was measured:
ssAβ 1-42 strain = test: Clioquinol rescue in liquid culture (Bioscreen OD600 growth); type: cell-based, yeast; details: for growth of the Aβ expressing strain: inducing (galactose) media, various concentrations; for growth at the optimal concentration compared with control strain: control strain expressing YFP
Procedure: (§1) To further test the effect of clioquinol, a control strain and a strain expressing toxic levels of Aβ were grown in liquid culture with various concentrations of the compound.
Yeast strains were grown overnight to saturation in synthetic medium with glucose as the carbon source after inoculation from a colony. These cultures were used to inoculate raffinose cultures. Raffinose cultures in log phase growth (OD600 0.7-0.9) were diluted to an OD600 of 0.03 in synthetic medium with galactose as the carbon source, and […] of the cell suspension was distributed to each well of a Bioscreen plate. […] of clioquinol (Sigma C8133, ˜95%), dissolved in DMSO at 100 times the final intended concentration, was added to each well. A Labsystems Bioscreen C was used to maintain the plate at 30 degrees C. and make OD600 measurements on each well at 10-minute intervals over a period of approximately three days. Each condition was performed in duplicate.

GAL controlled YFP = test: GAL1-induced expression, flow cytometry of GAL controlled YFP; type: cell-based, yeast; details: flow cytometry of GAL controlled YFP (data not shown)
Procedure: as §1
A strain carrying an integrated YFP was transformed with the putative Aβ suppressors. The resulting strains were grown in glucose media in a 96 well format, diluted into the various inducing media (galactose, glucose+1 uM estradiol, glycerol+1 uM estradiol) [5 ul culture added to 120 ul media], and incubated over night at 30° C. with mild shaking. These overnight cultures were diluted 20 fold into water and YFP levels were measured using a Guava flow cytometer. Each strain was measured 3 times and 5000 cells were counted for each well. The whole experiment was repeated 3 times. Values are averages of these 3 experiments and reported in percent of the vector control strain YFP levels.

Oc1c(I)cc(Cl)c2cccnc12 [clioquinol]
toxicity at higher concentrations (ssAβ 1-42 strain; higher concentrations, ssAβ 1-42 strain and YFP control strain): toxic to both strains | growth of the Aβ expressing strain (ssAβ 1-42 strain): rescued growth levels in a dose dependent manner | growth of the Aβ expressing strain (ssAβ 1-42 strain; listed as Clioquinol): improved the growth of the Aβ expressing strain in a dose dependent manner | growth at the optimal concentration compared with control strain (ssAβ 1-42 strain): restored growth levels to those of a control strain expressing YFP | growth at the optimal concentration compared with control strain (ssAβ 1-42 strain; listed as Clioquinol): nearly as robust as that of the control strain | effect on GAL1-induced expression (GAL controlled YFP): did not diminish GAL1-induced expression
